Assays:
Format in all cases: in vivo
[1] = test system: Silverleaf Whitefly (Bemisia argentifolii); assay: CE.4 Silverleaf whitefly, comparative test; details: 72 h, read-out: % mortality in comparison to untreated controls
Protocol: (§1) The tables show % mortality in comparison to untreated controls.
CE.4 Silverleaf Whitefly (Bemisia argentifolii)
The active compounds were formulated in 50:50 acetone:water (vol:vol) and 100 ppm Kinetica™ surfactant.
Selected cotton plants were grown to the cotyledon state (one plant per pot). The cotyledons were dipped into the test solution to provide complete coverage of the foliage and placed in a well-vented area to dry. Each pot with treated seedling was placed in a plastic cup and 10 to 12 whitefly adults (approximately 3-5 day old) were introduced. The insects were collected using an aspirator and a Tygon® tubing connected to a barrier pipette tip. The tip, containing the collected insects, was then gently inserted into the soil containing the treated plant, allowing insects to crawl out of the tip to reach the foliage for feeding. The cups were covered with a reusable screened lid. Test plants were maintained in the holding room at about 25° C. and about 20-40% relative humidity for 3 days avoiding direct exposure to the fluorescent light (24 hour photoperiod) to prevent trapping of heat inside the cup. Mortality was assessed 3 days after treatment of the plants.

[2] = test system: Rice Green Leafhopper (Nephotettix virescens); assay: CE.5 Rice green leafhopper, comparative test; details: 72 h, read-out: % mortality in comparison to untreated controls
[3] = test system: Diamond back moth (Plutella xylostella); assay: CE.6 Diamond back moth, contact activity, comparative test; details: read-out: % mortality in comparison to untreated controls
Protocol: as §1
CE.6 Diamond Back Moth (Plutella xylostella)
Ten third-instar larvae are sprayed with 1 ml test solution and introduce to untreated leaves held petri dished lined with moist filter paper. Mortality is recorded 24, 72, and 120 hours after treatment.

[4] = test system: Southern Armyworm (Spodoptera eridania), 2nd Instar Larvae; assay: CE.7 Southern armyworm, 2nd instar larvae, comparative test; details: foliar, 96 h, leaf dip, at 4 days, read-out: % mortality in comparison to untreated controls
Protocol: as §1
CE.7 Southern Armyworm (Spodoptera eridania), 2nd Instar Larvae
The active compounds were formulated in 50:50 acetone:water (vol) and 100 ppm Kinetica™ surfactant.
A pair of first true leaves of Sieva lima bean was dipped into the test solution and allowed to dry. The leaves were then placed in a plastic perforated zip enclosure bag and ten 2nd instar larvae were added. At 4 days, observations were made of mortality and reduced feeding.

O=C(NC1CCN(CC(F)(F)F)C1=O)c1ccc(C2=NOC(c3cc(Cl)c(F)c(Cl)c3)(C(F)(F)F)C2)c2c1CCC2 (stereo not shown) [Tab. 128, A-9 of WO 2015128358, reference compound]
mortality at 10 ppm [1]: 50% | mortality at 3 ppm [2]: 0% | mortality at 0.1 ppm [3]: 0% | mortality at 3 ppm [4]: 0%
